Biological target: T1, fibrin gels (10 mg/mL fibrinogen, 1 U/mL thrombin) (Homo sapiens, UniProt P02671+P02675+P02679)
T1 construct: purchased Ethicon (Evicel)
T1 sequence (P02671 20-644 isoform P02671-2 limits assumed): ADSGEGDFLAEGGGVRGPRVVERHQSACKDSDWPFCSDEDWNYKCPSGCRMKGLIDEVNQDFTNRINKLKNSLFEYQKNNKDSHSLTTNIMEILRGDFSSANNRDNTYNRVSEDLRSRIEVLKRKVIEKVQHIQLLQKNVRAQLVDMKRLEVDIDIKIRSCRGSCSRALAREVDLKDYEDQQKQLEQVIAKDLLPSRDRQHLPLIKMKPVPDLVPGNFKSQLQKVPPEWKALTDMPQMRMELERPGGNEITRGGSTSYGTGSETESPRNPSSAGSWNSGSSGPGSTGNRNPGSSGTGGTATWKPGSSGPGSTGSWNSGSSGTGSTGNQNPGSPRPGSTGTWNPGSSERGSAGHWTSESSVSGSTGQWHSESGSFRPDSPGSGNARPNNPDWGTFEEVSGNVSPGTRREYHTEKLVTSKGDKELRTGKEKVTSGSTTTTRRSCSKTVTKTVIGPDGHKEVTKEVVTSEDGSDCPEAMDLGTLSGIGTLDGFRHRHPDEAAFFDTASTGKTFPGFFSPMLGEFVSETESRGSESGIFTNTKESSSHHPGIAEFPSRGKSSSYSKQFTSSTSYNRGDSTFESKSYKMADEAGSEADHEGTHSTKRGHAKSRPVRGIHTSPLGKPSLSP
T1 sequence (P02675 45-491 limits assumed): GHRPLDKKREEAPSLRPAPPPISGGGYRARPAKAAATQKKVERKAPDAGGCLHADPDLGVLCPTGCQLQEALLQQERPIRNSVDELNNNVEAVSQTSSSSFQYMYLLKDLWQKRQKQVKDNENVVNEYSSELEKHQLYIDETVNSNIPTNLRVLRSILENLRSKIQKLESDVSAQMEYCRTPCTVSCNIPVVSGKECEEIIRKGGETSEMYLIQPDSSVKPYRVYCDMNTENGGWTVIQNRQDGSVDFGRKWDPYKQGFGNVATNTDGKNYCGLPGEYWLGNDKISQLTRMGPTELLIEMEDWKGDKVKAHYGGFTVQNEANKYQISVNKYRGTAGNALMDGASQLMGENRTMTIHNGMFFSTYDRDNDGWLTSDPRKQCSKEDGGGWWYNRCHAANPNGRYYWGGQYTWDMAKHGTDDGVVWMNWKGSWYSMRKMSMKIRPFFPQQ
T1 sequence (P02679 27-437 isoform P02679-2 limits assumed): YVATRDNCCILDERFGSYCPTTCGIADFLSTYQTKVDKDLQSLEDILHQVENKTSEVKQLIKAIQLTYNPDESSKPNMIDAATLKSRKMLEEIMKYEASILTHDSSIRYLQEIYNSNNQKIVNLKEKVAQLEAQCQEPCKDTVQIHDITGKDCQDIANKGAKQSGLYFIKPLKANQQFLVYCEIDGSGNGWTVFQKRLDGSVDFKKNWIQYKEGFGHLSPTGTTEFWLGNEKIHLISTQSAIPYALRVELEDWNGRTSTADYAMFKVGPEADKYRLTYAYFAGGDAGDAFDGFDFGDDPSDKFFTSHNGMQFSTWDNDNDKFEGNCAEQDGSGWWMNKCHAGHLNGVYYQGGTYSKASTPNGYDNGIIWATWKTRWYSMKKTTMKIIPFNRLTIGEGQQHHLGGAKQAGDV
Test: Rheometry gelation time, lower fibrinogen concentration fibrin gels
Format: biochemical
Conditions: n=3
Method: The viscoelastic mechanical properties of fibrin gels were characterized using oscillatory shear rheology on a Discovery Hybrid Rheometer 2 (TA Instruments; New Castle, DE) with a 20 mm cone-and-plate geometry at a 1° angle and a 20 mm stage. Inertia, friction, and rotational mapping calibrations were performed prior to each experiment. A Peltier temperature-controlled stage maintained 37° C. and a solvent trap was used to control evaporation during experiments lasting longer than 20 minutes. Gels were prepared by mixing specified concentrations of fibrinogen, dye, and thrombin on the stage. Immediately after combining, the geometry head was lowered to 500 μm (˜1-3 seconds) before beginning the first experiment. Gelation kinetics were monitored in time sweeps at 1% strain and 10 rad/s angular frequency. Strain sweeps were measured from 0.01-1000% strain at 1 Hz frequency. A frequency sweeps measured from 0.01-3 Hz at 1% strain was used to confirmed fibrin independence of frequency.
Rheometry was performed for samples with no dye (PBS alone), TB, EB, and PEG. Stock fibrinogen (Evicel) was used as is or diluted with PBS. Thrombin was diluted in PBS, with or without the various dyes. To determine the gelation time, a final mixture concentration of 10 mg/mL fibrinogen, 1 U/mL thrombin, and 0.01% w/v dye concentration was used. A time sweep was performed up to 20 minutes, after which some minor effects of evaporation in non-gelled samples introduced noise and could not reliably detect the storage modulus (g′). The gelation time was defined as the point at which the g′ exceeded the g″ (viscous modulus) and continued to increase over time.
Rheometry was used to confirm findings obtained using the coagulation analyzer and test conditions at higher fibrinogen concentrations used in high mechanical strength scaffolds. While clotting time and gelation time are similar properties, the terms are utilized discretely due to the differences in the respective assays. However, in controls for gels at higher fibrinogen concentrations, thrombin concentrations were decrease by orders of magnitude to assess initial gel time based on the sensitivity of the rheometer. In order to consistently detect a gelation time, when the g′ value (shear modulus) becomes greater than the g″ value (viscous modulus), conditions were set to […] fibrinogen and 1 U/mL thrombin final concentration using tissue glue for all samples. Sample conditions tested using rheometry included use of PBS (control), TB, EB, or PEG solution to dilute the thrombin so that the final gel concentration of the dye was 0.01% w/v. […]
Initially, g′ and g″ values were on the same scale (<2 Pa). […] Due to this, the gelation time was calculated as when the g′ values exceeded the g″ value and continued to grow over time (arrow, FIG. 5A). […]

| SMILES | gelation time (g′ exceeds g″) (0.01% w/v dye) [s] | gelation time (g′ exceeds g″) (0.005% w/v dye) [s] | gelation time (g′ exceeds g″) (0.12% w/v dye) [s] |
| --- | --- | --- | --- |
| Cc1cc(-c2ccc(/N=N/c3ccc4c(S(=O)(=O)O)cc(S(=O)(=O)O)c(N)c4c3O)c(C)c2)ccc1/N=N/c1ccc2c(S(=O)(=O)O)cc(S(=O)(=O)O)c(N)c2c1O [EB, Evans Blue] | 232.1 ± 19.3 |  |  |
| Cc1cc(-c2ccc(/N=N/c3c(S(=O)(=O)O)cc4cc(S(=O)(=O)O)cc(N)c4c3O)c(C)c2)ccc1/N=N/c1c(S(=O)(=O)O)cc2cc(S(=O)(=O)O)cc(N)c2c1O [TB, Trypan Blue] | 168.7 ± 19.9 | 106.4 ± 22.5 | 206.7 ± 31.3 |

Reference: US20230414826A1, “FIBRIN HYDROGELS” (Mayo Foundation for Medical Education and Research, priority 2020, published 2023)
